Measurements from PubChem BioAssay AID1549 (Sanford-Burnham Center for Chemical Genomics, 2009).
Active and inactive are the calls of the source. No rule for the calls is given here.

Molecular target: Influenza A virus M2 proton channel (A/TW/4845/1999 H1N1)
Test: M2 proton channel binding, NMR based, influenza A virus H1N1 strain (AID 1549)
Settings: NMR binding screen, M2 protein

| Compound | Kd |
| --- | --- |
| COc1cc(/C=C2/NC(=S)NC2=O)cc(Cl)c1O | > 4 mM (inactive) |
| CN1CCC(N2CCOCC2)CC1 | > 4 mM (inactive) |
| C1CCN2C[C@@H]3C[C@H](CN4CCCC[C@@H]34)[C@H]2C1 | > 4 mM (inactive) |
| Nc1[nH]c(=S)ncc1S(=O)(=O)c1ccccc1 | > 4 mM (inactive) |
| CS(=O)(=O)c1ccccc1C(=O)Nc1nccs1 | > 4 mM (inactive) |
| NC(=O)c1cccc2c(=O)oc3ccccc3c12 | > 4 mM (inactive) |
| Nc1nnc(SCc2ccc(F)cc2Cl)s1 | > 4 mM (inactive) |
| Cc1nnsc1-c1onc(C)c1C(=O)O | > 4 mM (inactive) |
| COC(=O)c1noc(-c2ccc(OC)cc2)n1 | > 4 mM (inactive) |
| COC(=O)Nc1nnc(-c2ccncc2)s1 | > 4 mM (inactive) |
| O=C(CC1NCCNC1=O)Nc1ccccc1 (stereo not given) | > 4 mM (inactive) |
| C[C@@H]1C(=O)O[C@H]2[C@H]1CC[C@@]1(C)C=CC(=O)[C@@]3(C)O[C@@]213 | > 4 mM (inactive) |
| COC(=O)c1ccc(NC(=O)CC2NCCNC2=O)cc1 (stereo not given) | > 4 mM (inactive) |
| CCn1c(-c2ccccc2)n[nH]c1=S | > 4 mM (inactive) |
| CN(C)CC(O)C1CCOC(C)(C)C1 (stereo not given) | > 4 mM (inactive) |
| C[C@@H]1CC[C@@]23CCC4(C)[C@@](C=CC5[C@@]6(C)CC[C@H](O)C(C)(C)C6CC[C@]54C)(OC2=O)C3[C@H]1C (stereo not given in full) | > 4 mM (inactive) |
| O=c1cc(-c2cc(O)c(O)c(O)c2)oc2cc(O)cc(O)c12 | > 4 mM (inactive) |
| Cn1c(=O)c2c([nH]c(=O)n2C)n(C)c1=O | > 4 mM (inactive) |
| CC1(C)C2C[C@@H](O)[C@]3(C)C(CC[C@@]4(C)[C@H](c5ccoc5)OC(=O)[C@H]5O[C@]543)[C@@]2(C)[C@@H](O)C[C@H]1O (stereo not given in full) | > 4 mM (inactive) |
| COc1cc(C)c2c(c1C=O)Oc1c(c(C)c(O)c3c1C(O)OC3=O)OC2=O (stereo not given) | > 4 mM (inactive) |
| CCS(=O)(=O)N1CCN(c2ccccc2F)CC1 | > 4 mM (inactive) |
| CC(C)(C)P(=O)(O)c1ccccc1 | > 4 mM (inactive) |
| COC1CC(O[C@H]2CC[C@]3(C=O)C4CC[C@]5(C)C(C6=CC(=O)OC6)CC[C@]5(O)C4CC[C@]3(O)C2)OC(C)C1O (stereo not given in full) | > 4 mM (inactive) |

| Compound | Kd |
| --- | --- |
| Cc1onc(-c2c(Cl)cccc2Cl)c1C(N)=O | > 4 mM (inactive) |
| O=C(O)C1=CCCNC1 | > 4 mM (inactive) |
| O=C1C2C3CCC(O3)C2C(=O)N1c1cccc(F)c1 (stereo not given) | > 4 mM (inactive) |
| COc1cc([C@@H]2c3cc4c(cc3[C@H](OC(C)=O)[C@H]3COC(=O)[C@@H]23)OCO4)cc(OC)c1OC | > 4 mM (inactive) |
| Cc1ccn(S(=O)(=O)c2ccc(F)cc2)n1 | > 4 mM (inactive) |
| Cc1nn(C)c(Cl)c1S(=O)(=O)N1CCOCC1 | > 4 mM (inactive) |
| O=C1C=CC2=C3c4cc(O)c(O)cc4C[C@@]3(O)COC2=C1 | > 4 mM (inactive) |
| O=C(O)CCc1ccc2c(c1)OCO2 | > 4 mM (inactive) |
| CCOC(=O)c1c(C)nc2ccccn12 | > 4 mM (inactive) |
| O=C1NC(=O)C(C(=S)Nc2ccccc2)C(=O)N1 | > 4 mM (inactive) |
| COc1ccc(O)c(-c2cn[nH]c2-c2cccs2)c1 | > 4 mM (inactive) |
| C=C1CCC2C(CC2(C)C)C(=C)CC/C1=N/O (stereo not given) | > 4 mM (inactive) |
| CC(=O)c1ccc(NC(=S)N2CCC(O)CC2)cc1 | > 4 mM (inactive) |
| O=C(NCc1ccccn1)c1ccc(Br)s1 | > 4 mM (inactive) |
| CC(=O)Nc1ccc(C(=O)NC2CCSC2=O)cc1 (stereo not given) | > 4 mM (inactive) |
| O=S1(=O)CCC(Nc2ccccc2)C1 (stereo not given) | > 4 mM (inactive) |
| Nc1cc(C(F)(F)F)ccc1N1CCOCC1 | > 4 mM (inactive) |
| Cc1nc2nc(-c3ccco3)nn2c(C)c1Cl | > 4 mM (inactive) |
| Nc1ncnc(NCCO)c1[N+](=O)[O-] | > 4 mM (inactive) |
| O=C(c1ccncc1)N1CCN(C(=O)c2ccncc2)CC1 | > 4 mM (inactive) |
| OC(c1ccccc1)c1ccccn1 (stereo not given) | > 4 mM (inactive) |
| Cc1ccccc1CSc1nncn1N | > 4 mM (inactive) |
